Our source for the IC50 values is US20250388589A1, “TRICYCLIC HETEROCYCLIC DERIVATIVES, COMPOSITIONS AND USES THEREOF” (Danatlas Pharmaceuticals Co., Ltd., priority 2022, published 2025).

Assay [1] addresses hPARG (C-terminal His6-tag) (Homo sapiens (Human), UniProt Q86W56). In words: PARG Enzymatic Activity Assay (HTRF). It counts as biochemical. To be noted: hPARG 65 pM final, biotinylated-NAD ribosylated PARP1 8 nM final. An outline of the steps:
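Readout is time-resolved fluorescence at 620 and 665 nm after 60 min RT detection with streptavidin-Eu cryptate and anti-6HIS-XL665; IC50 by 4-parameter fit, 1% DMSO and no-enzyme controls. Reaction: 8 nM final ribosylated PARP1 substrate for 10 min RT, following 60 min RT enzyme (65 pM)–compound preincubation in Tris pH 7.4 buffer with EDTA, DTT, KCl.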
On the technique in general: TR-FRET usually uses a lanthanide donor and a delayed reading to cut background.

A further assay deals with Kuramochi cell line. In words: Cell Viability Assay (Cell Titer-Glo, 7 days). It counts as cell-based. To be noted: 168 h, Kuramochi cells, 7 days incubation, read-out: PARG Cell viability (IC50). An outline of the steps: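 IC50 from a four-parameter fit of CellTiter-Glo luminescence, scaled between DMSO-treated (high) and medium-only (low) wells. Kuramochi cells (400/well, RPMI/10% FBS) exposed 7 days at 37 °C to 9 concentrations, 3-fold steps, in duplicate.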
(In general: Cellular ATP, detected with luciferase, serves as a proxy for viable cell number.)

Sequence of hPARG (C-terminal His6-tag) (Q86W56 whole entry): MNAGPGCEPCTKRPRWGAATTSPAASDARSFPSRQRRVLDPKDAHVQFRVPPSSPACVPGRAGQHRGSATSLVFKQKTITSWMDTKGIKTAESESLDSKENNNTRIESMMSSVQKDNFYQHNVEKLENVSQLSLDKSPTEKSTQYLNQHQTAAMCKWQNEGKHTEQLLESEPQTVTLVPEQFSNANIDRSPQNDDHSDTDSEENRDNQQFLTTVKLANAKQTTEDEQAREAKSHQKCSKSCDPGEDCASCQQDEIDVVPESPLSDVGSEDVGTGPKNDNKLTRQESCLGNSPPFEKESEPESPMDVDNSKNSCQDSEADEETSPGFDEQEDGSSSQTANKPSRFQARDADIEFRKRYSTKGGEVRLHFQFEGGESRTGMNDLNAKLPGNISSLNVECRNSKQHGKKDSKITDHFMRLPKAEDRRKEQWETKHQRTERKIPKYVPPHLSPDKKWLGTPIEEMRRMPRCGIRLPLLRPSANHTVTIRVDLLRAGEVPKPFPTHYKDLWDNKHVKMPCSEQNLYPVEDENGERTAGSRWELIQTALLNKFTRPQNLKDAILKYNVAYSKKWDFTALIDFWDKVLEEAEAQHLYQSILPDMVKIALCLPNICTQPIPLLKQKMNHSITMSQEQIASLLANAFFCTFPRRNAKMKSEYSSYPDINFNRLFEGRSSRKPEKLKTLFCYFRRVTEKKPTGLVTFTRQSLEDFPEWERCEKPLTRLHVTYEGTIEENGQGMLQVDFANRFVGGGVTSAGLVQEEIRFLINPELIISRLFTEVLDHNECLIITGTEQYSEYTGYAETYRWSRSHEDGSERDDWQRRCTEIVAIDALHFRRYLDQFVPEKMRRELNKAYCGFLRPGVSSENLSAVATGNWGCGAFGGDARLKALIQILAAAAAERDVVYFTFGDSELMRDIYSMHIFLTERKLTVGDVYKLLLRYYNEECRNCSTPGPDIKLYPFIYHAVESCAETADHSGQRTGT

Turning to `N#CC1(NS(=O)(=O)c2ccc3c4c(N5CCN(C(=O)C6COC6)CC5)ncnc4n(-c4nnc(C(F)F)s4)c3c2)CC1` [Example 66, N-(1-Cyanocyclopropyl)-9-(5-(difluoromethyl)-1,3,4-thiadiazol-2-yl)-4-(4-(oxetane-3-carbonyl)piperazin-1-yl)-9H-pyrimido[4,5-b]indole-7-sulfonamide], the IC50 (in assay [1]; in the assay with Kuramochi cell line) was less than 100 nM each time.
Regarding `CN1CCC(C(=O)N2CCN(c3ncnc4c3c3ccc(S(=O)(=O)NC5(C#N)CC5)cc3n4-c3nnc(C(F)F)s3)CC2)C1` (centres unmarked) [Example 67, N-(1-Cyanocyclopropyl)-9-(5-(difluoromethyl)-1,3,4-thiadiazol-2-yl)-4-(4-(1-methylpyrrolidine-3-carbonyl)piperazin-1-yl)-9H-pyrimido[4,5-b]indole-7-sulfonamide], the IC50 was less than 100 nM in assay [1] and 100 to 1000 nM with Kuramochi cell line.
As for `N#CC1(NS(=O)(=O)c2ccc3c4c(N5CCN(C(=O)C6(F)CCC6)CC5)ncnc4n(-c4nnc(C(F)F)s4)c3c2)CC1` [Example 68, N-(1-Cyanocyclopropyl)-9-(5-(difluoromethyl)-1,3,4-thiadiazol-2-yl)-4-(4-(1-fluorocyclobutane-1-carbonyl)piperazin-1-yl)-9H-pyrimido[4,5-b]indole-7-sulfonamide], the IC50 in assay [1] was less than 100 nM; in the assay with Kuramochi cell line it was 100 to 1000 nM.
The matching figures for `CC(C)[S+]([O-])N1CCN(c2ncnc3c2c2ccc(S(=O)(=O)NC4(C#N)CC4)cc2n3-c2nnc(C(F)F)s2)CC1` (centres unmarked) [Example 69, N-(1-Cyanocyclopropyl)-9-(5-(difluoromethyl)-1,3,4-thiadiazol-2-yl)-4-(4-(isopropylsulfinyl)piperazin-1-yl)-9H-pyrimido[4,5-b]indole-7-sulfonamide]: less than 100 nM and less than 100 nM.
With `CC(C)(C)[S+]([O-])N1CCN(c2ncnc3c2c2ccc(S(=O)(=O)NC4(C#N)CC4)cc2n3-c2nnc(C(F)F)s2)CC1` (centres unmarked) [Example 70, 4-(4-(Tert-butylsulfinyl)piperazin-1-yl)-N-(1-cyanocyclopropyl)-9-(5-(difluoromethyl)-1,3,4-thiadiazol-2-yl)-9H-pyrimido[4,5-b]indole-7-sulfonamide], the IC50 (in assay [1]; in the assay on Kuramochi cell line) was less than 100 nM each time.
Turning to `N#CC1(NS(=O)(=O)c2ccc3c4c(N5CC6CN(C(=O)C7COC7)CC6C5)ncnc4n(-c4nnc(C(F)F)s4)c3c2)CC1` (centres unmarked) [Example 71, N-(1-Cyanocyclopropyl)-9-(5-(difluoromethyl)-1,3,4-thiadiazol-2-yl)-4-(5-(oxetane-3-carbonyl)hexahydropyrrolo[3,4-c]pyrrol-2(1H)-yl)-9H-pyrimido[4,5-b]indole-7-sulfonamide], the IC50 in assay [1] is less than 100 nM; in the assay with Kuramochi cell line, 100 to 1000 nM.
The corresponding values for `C[C@H]1CN(C(=O)N(C)C)CCN1c1ncnc2c1c1ccc(S(=O)(=O)NC3(C#N)CC3)cc1n2-c1nnc(C(F)F)s1` [Example 72, (S)-4-(7-(N-(1-Cyanocyclopropyl)sulfamoyl)-9-(5-(difluoromethyl)-1,3,4-thiadiazol-2-yl)-9H-pyrimido[4,5-b]indol-4-yl)-N,N,3-trimethylpiperazine-1-carboxamide] are 100 to 1000 nM and 100 to 1000 nM.
On to `C[C@@H]1CN(C(=O)N(C)C)CCN1c1ncnc2c1c1ccc(S(=O)(=O)NC3(C#N)CC3)cc1n2-c1nnc(C(F)F)s1` [Example 73, (R)-4-(7-(N-(1-Cyanocyclopropyl)sulfamoyl)-9-(5-(difluoromethyl)-1,3,4-thiadiazol-2-yl)-9H-pyrimido[4,5-b]indol-4-yl)-N,N,3-trimethylpiperazine-1-carboxamide], for which the IC50 (in assay [1]; with Kuramochi cell line) was less than 100 nM each time.
For `CC(C)C(=O)N1CC=C(c2ncnc3c2c2ccc(S(=O)(=O)NC4(C#N)CC4)cc2n3-c2nnc(C(F)F)s2)CC1` [Example 74, N-(1-Cyanocyclopropyl)-9-(5-(difluoromethyl)-1,3,4-thiadiazol-2-yl)-4-(1-isobutyryl-1,2,3,6-tetrahydropyridin-4-yl)-9H-pyrimido[4,5-b]indole-7-sulfonamide], the IC50 (in assay [1]; with Kuramochi cell line) was less than 100 nM throughout.
Take `CC(C)C(=O)N1C=CC(c2ncnc3c2c2ccc(S(=O)(=O)NC4(C#N)CC4)cc2n3-c2nnc(C(F)F)s2)CC1` (centres unmarked) [Example 75, N-(1-Cyanocyclopropyl)-9-(5-(difluoromethyl)-1,3,4-thiadiazol-2-yl)-4-(1-isobutyryl-1,2,3,4-tetrahydropyridin-4-yl)-9H-pyrimido[4,5-b]indole-7-sulfonamide]: the IC50 (in assay [1]; with Kuramochi cell line) was less than 100 nM throughout.
As to `CC(C)C(=O)N1CCC(c2ncnc3c2c2ccc(S(=O)(=O)NC4(C#N)CC4)cc2n3-c2nnc(C(F)F)s2)CC1` [Example 76, N-(1-Cyanocyclopropyl)-9-(5-(difluoromethyl)-1,3,4-thiadiazol-2-yl)-4-(1-isobutyrylpiperidin-4-yl)-9H-pyrimido[4,5-b]indole-7-sulfonamide], the IC50 (in assay [1]; with Kuramochi cell line) was less than 100 nM each time.
Take `CN1CC=C(c2ncnc3c2c2ccc(S(=O)(=O)NC4(C#N)CC4)cc2n3-c2nnc(C(F)F)s2)CC1` [Example 77, N-(1-Cyanocyclopropyl)-9-(5-(difluoromethyl)-1,3,4-thiadiazol-2-yl)-4-(1-methyl-1,2,3,6-tetrahydropyridin-4-yl)-9H-pyrimido[4,5-b]indole-7-sulfonamide]: the IC50 (in assay [1]; in the assay with Kuramochi cell line) was less than 100 nM each time.
As for `N#CC1(NS(=O)(=O)c2ccc3c4c(C5=CCOCC5)ncnc4n(-c4nnc(C(F)F)s4)c3c2)CC1` [Example 78, N-(1-Cyanocyclopropyl)-9-(5-(difluoromethyl)-1,3,4-thiadiazol-2-yl)-4-(3,6-dihydro-2H-pyran-4-yl)-9H-pyrimido[4,5-b]indole-7-sulfonamide], the IC50 is less than 100 nM in assay [1] and 100 to 1000 nM in the assay on Kuramochi cell line.
The corresponding values for `N#CC1(NS(=O)(=O)c2ccc3c4c(C5CCOCC5)ncnc4n(-c4nnc(C(F)F)s4)c3c2)CC1` [Example 79, N-(1-Cyanocyclopropyl)-9-(5-(difluoromethyl)-1,3,4-thiadiazol-2-yl)-4-(tetrahydro-2H-pyran-4-yl)-9H-pyrimido[4,5-b]indole-7-sulfonamide] are less than 100 nM and less than 100 nM.
As for `N#CC1(NS(=O)(=O)c2ccc3c4c(N5CCC(O)CC5)ccnc4n(-c4nnc(C(F)F)s4)c3c2)CC1` [Example 80, N-(1-Cyanocyclopropyl)-9-(5-(difluoromethyl)-1,3,4-thiadiazol-2-yl)-4-(4-hydroxypiperidin-1-yl)-9H-pyrido[2,3-b]indole-7-sulfonamide], the IC50 (in assay [1]; in the assay on Kuramochi cell line) was 100 to 1000 nM in each case.
Consider `CN(C)C(=O)N1CC=C(c2ncnc3c2c2cc(F)c(S(=O)(=O)NC4(C)CC4)cc2n3-c2nnc(C(F)F)s2)CC1` [Example 81, 4-(9-(5-(Difluoromethyl)-1,3,4-thiadiazol-2-yl)-6-fluoro-7-(N-(1-methylcyclopropyl)sulfamoyl)-9H-pyrimido[4,5-b]indol-4-yl)-N,N-dimethyl-3,6-dihydropyridine-1(2H)-carboxamide], for which the IC50 (in assay [1]; with Kuramochi cell line) was less than 100 nM throughout.
As for `CN(C)C(=O)N1CCC(c2ncnc3c2c2cc(F)c(S(=O)(=O)NC4(C)CC4)cc2n3-c2nnc(C(F)F)s2)CC1` [Example 82, 4-(9-(5-(Difluoromethyl)-1,3,4-thiadiazol-2-yl)-6-fluoro-7-(N-(1-methylcyclopropyl)sulfamoyl)-9H-pyrimido[4,5-b]indol-4-yl)-N,N-dimethylpiperidine-1-carboxamide], the IC50 (in assay [1]; with Kuramochi cell line) was less than 100 nM throughout.
Turning to `N#CC1(NS(=O)(=O)c2ccc3c4c(C5CCCCO5)ncnc4n(-c4nnc(C(F)F)s4)c3c2)CC1` (centres unmarked) [Example 83, N-(1-cyanocyclopropyl)-9-(5-(difluoromethyl)-1,3,4-thiadiazol-2-yl)-4-(tetrahydro-2H-pyran-2-yl)-9H-pyrimido[4,5-b]indole-7-sulfonamide], the IC50 in assay [1] was less than 100 nM; in the assay on Kuramochi cell line, 100 to 1000 nM.
The corresponding values for `N#CC1(NS(=O)(=O)c2ccc3c4c(C5=CCC(O)CC5)ncnc4n(-c4nnc(C(F)F)s4)c3c2)CC1` (centres unmarked) [Example 84, N-(1-Cyanocyclopropyl)-9-(5-(difluoromethyl)-1,3,4-thiadiazol-2-yl)-4-(4-hydroxycyclohex-1-en-1-yl)-9H-pyrimido[4,5-b]indole-7-sulfonamide] are less than 100 nM and less than 100 nM.
The corresponding values for `N#CC1(NS(=O)(=O)c2ccc3c4c(C5CCC(O)CC5)ncnc4n(-c4nnc(C(F)F)s4)c3c2)CC1` (centres unmarked) [Example 85, N-(1-Cyanocyclopropyl)-9-(5-(difluoromethyl)-1,3,4-thiadiazol-2-yl)-4-(4-hydroxycyclohexyl)-9H-pyrimido[4,5-b]indole-7-sulfonamide] are less than 100 nM and less than 100 nM.
The corresponding values for `CC(C)(C)OC(=O)N1CCC(c2ncnc3c2c2ccc(S(=O)(=O)NC4(C#N)CC4)cc2n3-c2nnc(C(F)F)s2)CC1` [Example 86, tert-butyl 4-(7-(N-(1-cyanocyclopropyl)sulfamoyl)-9-(5-(difluoromethyl)-1,3,4-thiadiazol-2-yl)-9H-pyrimido[4,5-b]indol-4-yl)piperidine-1-carboxylate] are less than 100 nM and 100 to 1000 nM.
For `N#CC1(NS(=O)(=O)c2ccc3c4c(C5CCNCC5)ncnc4n(-c4nnc(C(F)F)s4)c3c2)CC1` [Example 87, N-(1-Cyanocyclopropyl)-9-(5-(difluoromethyl)-1,3,4-thiadiazol-2-yl)-4-(piperidin-4-yl)-9H-pyrimido[4,5-b]indole-7-sulfonamide], the IC50 was less than 100 nM in assay [1] and 100 to 1000 nM in the assay on Kuramochi cell line.

A word on the IC50: it is the concentration that inhibits the measured activity by half.
